Results on 23 molecules are retold here after patent US10683293B2, “Optionally fused heterocyclyl-substituted derivatives of pyrimidine useful for the treatment of inflammatory, metabolic, oncologic and autoimmune diseases” (NUEVOLUTION A/S, priority 2014, dated 2020).

In this assay the target is T1, human RORγt (Ligand Binding Domain) (Homo sapiens, UniProt P51449).
T1 construct: purchased Crelux (Planegg, Germany) batch no PC5032-1
T1 sequence (P51449 269-508 limits assumed): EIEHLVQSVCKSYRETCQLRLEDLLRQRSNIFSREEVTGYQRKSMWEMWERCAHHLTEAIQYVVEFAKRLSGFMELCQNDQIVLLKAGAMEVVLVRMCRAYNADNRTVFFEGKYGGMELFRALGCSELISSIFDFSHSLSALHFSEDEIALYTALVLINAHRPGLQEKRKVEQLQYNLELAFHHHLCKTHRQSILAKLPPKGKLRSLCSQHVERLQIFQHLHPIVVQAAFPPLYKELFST
The experiment in a line: Fluorescence Polarization (FP) Assay. To be noted: 100 nM human RORγt LBD, 25 nM TAMRA probe, values are activity range bounds. The method, then:
The activity of the compounds was evaluated using a Fluorescence Polarization (FP) Assay and, RORγ Reporter assay (also referred to as Gal4 assay). The FP assay is an in vitro assay monitoring binding within the ligand binding pocket. The RORγ and the Th17 assays (another suitable assay) are both cell-based assays monitoring functional activity of the compound assayed.
Fluorescence Polarization (FP) Assay
The total volume was 25 μl, in a black Perkin Elmer OptiPlate. As negative control, 1 μl DMSO was used. […] The probe is a fluorescently labeled (TAMRA) RORγt ligand identified by Nuevolution with a total molecular weight of 910 g/mole as shown in Graph A in FIG. 1.
A general note: Polarisation of emitted light reports the rotation of a fluorescent probe.
What is called IC50 is the concentration needed to halve the response being measured. The low end stands for inhibition by little substance, the high end for a need for much substance. Consider `O=S(=O)(Nc1ccc(CNc2ncnc(N(Cc3ccc(C(F)(F)F)cn3)C3CC3)c2F)cc1)C(F)F` [Example A106, N-[4-[[[6-[cyclopropyl-[[5-(trifluoromethyl)-2-pyridyl]methyl]amino]-5-fluoro-pyrimidin-4-yl]amino]methyl]phenyl]-1,1-difluoro-methanesulfonamide], for which the IC50 was less than 10000 nM.

`NC(=O)Cc1ccc(CNc2ncnc(N(Cc3cccc(-c4cccnc4)c3)C3CC3)c2F)cc1` [Example A130, 2-[4-[[[6-[cyclopropyl-[[3-(3-pyridyl)phenyl]methyl]amino]-5-fluoro-pyrimidin-4-yl]amino]methyl]phenyl]acetamide] showed an IC50 of less than 500 nM.

`CS(=O)(=O)CC1(CNc2ncnc(N(Cc3ccc(C(F)(F)F)cc3)C3CC3)c2F)CCOCC1` [Example A31, N6-cyclopropyl-5-fluoro-N4-[[4-(methylsulfonylmethyl)tetrahydro-pyran-4-yl]methyl]-N6-[[4-(trifluoromethyl)phenyl]methyl] pyrimidine-4,6-diamine] had an IC50 of less than 500 nM.

Molecule `CN(Cc1ccc2ccccc2c1)c1ncnc(NCc2ccc(CC(N)=O)cc2)c1F` [Example A121, 2-[4-[[[5-fluoro-6-[methyl(2-naphthylmethyl)amino]pyrimidin-4-yl]amino]methyl]phenyl]acetamide] had a concentration for half-maximal inhibition (IC50) of less than 500 nM.

Turning to `COc1ccc(CN(C)c2ncnc(NCc3ccc(CC(N)=O)cc3)c2F)c(OC)c1` [Example A139, 2-[4-[[[6-[(2,4-dimethoxyphenyl)methyl-methyl-amino]-5-fluoro-pyrimidin-4-yl]amino]methyl]phenyl]acetamide], the half-maximal inhibitory concentration (IC50) was less than 2000 nM.

`CC(C)C1CCC(CNc2ncnc(N(Cc3ccc(C(F)(F)F)cc3)C3CC3)c2F)CC1` (centres unmarked) [Example A33, N6-cyclopropyl-5-fluoro-N4-[(4-isopropylcyclohexyl)methyl]-N6-[[4-(trifluoromethyl)phenyl]methyl] pyrimidine-4,6-diamine] came in with an IC50 of less than 500 nM.

Regarding `CS(=O)(=O)N1CCC(CNc2ncnc(N(Cc3ccc(C(F)(F)F)cc3)C3CC3)c2F)C1` (centres unmarked) [Example A158, N4-cyclopropyl-5-fluoro-N6-[(1-methylsulfonylpyrrolidin-3-yl)methyl]-N4-[[4-(trifluoromethyl)phenyl]methyl] pyrimidine-4,6-diamine], the IC50 is less than 500 nM.

In turn, `COC1CCCCC1CNc1ncnc(N(Cc2ccc(C(F)(F)F)cc2)C2CC2)c1F` (centres unmarked) [Example A43, N4-cyclopropyl-5-fluoro-N6-[(2-methoxycyclohexyl)methyl]-N4-[[4-(trifluoromethyl)phenyl]methyl] pyrimidine-4,6-diamine] had an IC50 of less than 1000 nM.

For `COc1ccc(CNc2ncnc(N(Cc3ccc(C(F)(F)F)cc3)C3CC3)c2F)cn1` [Example A25, N6-cyclopropyl-5-fluoro-N4-[(6-methoxy-3-pyridyl)methyl]-N6-[[4-(trifluoromethyl)phenyl]methyl] pyrimidine-4,6-diamine], the IC50 was less than 500 nM.

Regarding `CS(=O)(=O)N1CCC(C(=O)Nc2ncnc(N(Cc3ccc(C(F)(F)F)cc3)C3CC3)c2F)CC1` [Example A100, N-[6-[cyclopropyl-[[4-(trifluoromethyl)phenyl]methyl]amino]-5-fluoro-pyrimidin-4-yl]-1-methylsulfonyl-piperidine-4-carboxamide], the IC50 was less than 10000 nM.

In the case of `O=C(O)CC1(CNc2ncnc(N(Cc3ccc(C(F)(F)F)cc3)C3CC3)c2F)CCS(=O)(=O)CC1` [Example A72, 2-[4-[[[6-[cyclopropyl-[[4-(trifluoromethyl)phenyl]methyl]amino]-5-fluoro-pyrimidin-4-yl]amino]methyl]-1,1-dioxo-thian-4-yl]acetic acid], the IC50 was less than 10000 nM.

`CN(Cc1ccc(-n2cccn2)cc1)c1ncnc(NCc2ccc(S(N)(=O)=O)cc2)c1F` [Example A135, 4-[[[5-fluoro-6-[methyl-[(4-pyrazol-1-ylphenyl)methyl]amino]pyrimidin-4-yl]amino]methyl]benzenesulfonamide] showed a concentration for half-maximal inhibition (IC50) of less than 10000 nM.

Take `CS(=O)(=O)N1CCC(O)(CNc2ncnc(N(Cc3ccc(C(F)(F)F)cc3)C3CC3)c2F)CC1` [Example A69, 4-[[[6-[cyclopropyl-[[4-(trifluoromethyl)phenyl]methyl]amino]-5-fluoro-pyrimidin-4-yl]amino]methyl]-1-methylsulfonyl-piperidin-4-ol]: the IC50 is less than 500 nM.

For `CN(Cc1cccc(OC(F)F)c1)c1ncnc(NCc2ccc(CC(N)=O)cc2)c1F` [Example A127, 2-[4-[[[6-[[3-(difluoromethoxy)phenyl]methyl-methyl-amino]-5-fluoro-pyrimidin-4-yl]amino]methyl]phenyl]acetamide], the 50% inhibitory concentration (IC50) was less than 500 nM.

`Fc1c(NCc2ccncc2)ncnc1N(Cc1ccc(C(F)(F)F)cc1)C1CC1` [Example A41, N4-cyclopropyl-5-fluoro-N6-(4-pyridylmethyl)-N4-[[4-(trifluoromethyl)phenyl]methyl] pyrimidine-4,6-diamine] displayed an IC50 of less than 500 nM.

Take `CS(=O)(=O)N1CC(CNc2ncnc(N(Cc3ccc(C(F)(F)F)cc3)C3CC3)c2F)C1` [Example A160, N4-cyclopropyl-5-fluoro-N6-[(1-methylsulfonylazetidin-3-yl)methyl]-N4-[[4-(trifluoromethyl)phenyl]methyl] pyrimidine-4,6-diamine]: the IC50 is less than 500 nM.

The molecule `CS(=O)(=O)Cc1ccc(CNc2ncnc(N(Cc3ccc(C(F)(F)F)cc3)C3CC3)c2F)cc1` [Example A37, N4-cyclopropyl-5-fluoro-N6-[[4-(methylsulfonylmethyl)phenyl]methyl]-N4-[[4-(trifluoromethyl)phenyl]methyl] pyrimidine-4,6-diamine] came in with an IC50 of less than 500 nM.

As to `CN(Cc1cccc2ccccc12)c1ncnc(NCc2ccc(CC(N)=O)cc2)c1F` [Example A118, 2-[4-[[[5-fluoro-6-[methyl(1-naphthylmethyl)amino]pyrimidin-4-yl]amino]methyl]phenyl]acetamide], the 50% inhibitory concentration (IC50) is less than 500 nM.

Molecule `NC(=O)C1CC(CNc2ncnc(N(Cc3ccc(C(F)(F)F)cc3)C3CC3)c2F)C1` (centres unmarked) [Example A96, 3-[[[6-[cyclopropyl-[[4-(trifluoromethyl)phenyl]methyl]amino]-5-fluoro-pyrimidin-4-yl]amino]methyl]cyclobutane-carboxamide] registered a half-maximal inhibitory concentration (IC50) of less than 10000 nM.

Take `Fc1c(NCc2ccccc2)ncnc1N(Cc1ccc(C(F)(F)F)cc1)C1CC1` [Example A40, N6-benzyl-N4-cyclopropyl-5-fluoro-N4-[[4-(trifluoromethyl)phenyl]methyl] pyrimidine-4,6-diamine]: the IC50 is less than 1000 nM.

Molecule `Fc1c(NCc2ccsc2)ncnc1N(Cc1ccc(C(F)(F)F)cc1)C1CC1` [Example A21, N6-cyclopropyl-5-fluoro-N4-(3-thienylmethyl)-N6-[[4-(trifluoromethyl)phenyl]methyl] pyrimidine-4,6-diamine] yielded a half-maximal inhibitory concentration (IC50) of less than 1000 nM.

`CCN(Cc1cccc2c1OCO2)c1ncnc(NCc2ccc(CC(N)=O)cc2)c1F` [Example A126, 2-[4-[[[6-[1,3-benzodioxol-4-ylmethyl(ethyl)amino]-5-fluoro-pyrimidin-4-yl]amino]methyl]phenyl]acetamide] showed a half-inhibitory concentration (IC50) of less than 500 nM.

With `O=C(O)CC1CC(CNc2ncnc(N(Cc3ccc(C(F)(F)F)cc3)C3CC3)c2F)C1` (centres unmarked) [Example A92, 2-[3-[[[6-[cyclopropyl-[[4-(trifluoromethyl)phenyl]methyl]amino]-5-fluoro-pyrimidin-4-yl]amino]methyl]cyclobutyl]acetic acid], the IC50 was less than 10000 nM.
